Here are results for 2 compounds from US20250268253A1, “MULTIFUNCTIONAL NATURAL PROTECTANT SYSTEMS WITH HYDROXYACETOPHENONE” (BARENTZ NORTH AMERICA, LLC, priority 2021, published 2025).

In assay [1] the test system is mixture of fungi (C. albicans (ATCC #10231) and A. brasiliensis (ATCC #16404)). The assay is described as follows: CTFA Preservative Challenge Test in shampoo, mixed fungi. It counts as cell-based. The following applies: shampoo containing the sample; initial count 7.9×10^5 cfu/mL; surviving organisms on day 7. On the procedure: (§1) The CTFA Preservative Challenge Test was performed on a shampoo containing the samples below against a mixture of fungi (C. albicans (ATCC #10231) and A. brasiliensis (ATCC #16404)) having an initial count of 7.9×10^5 cfu/mL or a mixture of bacteria having an initial count of 4×10^6 cfu/mL. The shampoos inoculated with bacteria were allowed to stand for 14 days and the shampoos inoculated with fungi were allowed to stand for 7 days. The samples were evaluated for surviving organisms on day 7 for fungi-innoculated shampoos and days 7 and 14 for bacteria-innoculated shampoos.
From the table, synergism for the combinations above against mixed bacteria in shampoo was calculated by the method described in C. E. Kull et al., “Mixtures of Quaternary Ammonium Compounds and Long-chain Fatty Acids as Antifungal Agents”, Applied Microbiology, 9:538-541 (1961). The synergism value (QA/Qa+QB/Qb) was determined. […] Qa is the concentration of the first component alone (in percent by weight) required to yield 100% retardation of the bacteria or fungi. Qb is the concentration of the second component alone (in percent by weight) required to yield 100% retardation of the bacteria or fungi. When the value of (QA/Qa+QB/Qb) is less than one, the mixture is synergistic. Values for (QA/Qa+QB/Qb) of 1 and greater represent an additive effect and an antagonistic effect, respectively. […]

The subject of assay [2] is mixture of bacteria. The assay can be described thus: CTFA Preservative Challenge Test in shampoo, mixed bacteria. It is filed as cell-based. To be noted: for concentration of the component alone required to yield 100% retardation (Qa, Qb): percent by weight in shampoo, plate count <10 cfu/g after 7 days; for Day 7 Count Mixed Bacteria: shampoo containing the sample, initial count 4×10^6 cfu/mL, surviving organisms on day 7. On the procedure: as §1
From the table, synergism for the combinations above against mixed bacteria in shampoo was calculated by the method described in C. E. Kull et al., “Mixtures of Quaternary Ammonium Compounds and Long-chain Fatty Acids as Antifungal Agents”, Applied Microbiology, 9:538-541 (1961). The synergism value (QA/Qa+QB/Qb) was determined. […] Qa is the concentration of the first component alone (in percent by weight) required to yield 100% retardation of the bacteria or fungi. Qb is the concentration of the second component alone (in percent by weight) required to yield 100% retardation of the bacteria or fungi. […] Values for (QA/Qa+QB/Qb) of 1 and greater represent an additive effect and an antagonistic effect, respectively.

On to `CC(=O)c1ccc(O)cc1` [0.35% hydroxyacetophenone, 4-hydroxyacetophenone], for which the “Day 7 Count Mixed Fungi” value in assay [1] is 1.5 × 10^2 cfu/mL. Besides, in assay [2], the “concentration of the component alone required to yield 100% retardation (Qa, Qb)” value is more than 0.35% and the “Day 7 Count Mixed Bacteria” value is given as 3.2 × 10^2 cfu/mL.
In the case of `OCCCO` [5% 1,3-propanediol, 1,3-propanediol], the “Day 7 Count Mixed Fungi” value in assay [1] is given as 9.2 × 10^2 cfu/mL. In assay [2], the “concentration of the component alone required to yield 100% retardation (Qa, Qb)” value is given as more than 5% and the “Day 7 Count Mixed Bacteria” value is recorded as 5.2 × 10^2 cfu/mL.
